Patent US8048875B1, “Topical pharmaceutical composition comprising a cholinergic agent or a calcium channel blocker” (S.L.A. Pharma AG, priority 1997, dated 2011)
Like-named read-outs stand apart in the source and are kept apart here. Each block holds one compound with its values, some of them ahead of it.

Tests used:
[1] = Dose ranging study of bethanechol cream in healthy volunteers, anal manometry; assay type: in vivo, human; conditions: higher concentrations produced no additional effect
Description: Bethanechol cream at concentrations of 0.05%, 0.1%, 0.5% and 1% w/w bethanechol were made up in accordance with Example 1. The compositions were studied following initial experimentation in an open way to determine a clinically effective dose range. […] Maximal effect was produced by application of 0.1% bethanechol and higher concentrations of the cream produced no additional effect. At 0.1% w/w bethanechol, the mean resting pressure was reduced from about 110 cm to about 85 cm H2O (about 25% decrease). A typical ‘one inch’ application of this cream from the tube is equivalent to 400 mcg of bethanechol.

[2] = higher concentrations did not produce an additional effect
[3] = Study of Example 4 repeated using oral diltiazem
[4] = topical use; cited from earlier work
[5] = after 1 hour, patients with anal fissures; cited from earlier work

Compound: CC(C[N+](C)(C)C)OC(N)=O (stereo not shown) [bethanechol]
- concentration producing the maximal effect on resting anal pressure [1]: 0.1 % w/w

- patients who noticed postural dizziness ([3]; 60 mg oral twice a day): two
Compound: COc1ccc([C@@H]2Sc3ccccc3N(CCN(C)C)C(=O)[C@@H]2OC(C)=O)cc1 [diltiazem]
- concentration producing the maximal effect on resting anal pressure [2]: about 2 % w/w
- effect on mean anal resting pressure ([3]; 60 mg oral once a day): no notable effect
- mean anal resting pressure reduced by ([3]; 60 mg oral twice a day, P=0.008): 17%

Compound: O=[N+]([O-])OCC(CO[N+](=O)[O-])O[N+](=O)[O-] [glyceryl trinitrate]
- effect on internal anal resting pressure [4]: reduces the internal anal resting pressure

Compound: O=C(NC1CCN(CCc2c[nH]c3ccccc23)CC1)c1ccccc1 [indoramin]
- reduction of maximum resting pressures in the anal canal [5]: 35.8%
